Experimental data taken from ChEMBL document CHEMBL1133881, “Antimalarial halorosellinic acid from the marine fungus Halorosellinia oceanica” (Bioorg Med Chem Lett, 2001).
≈ marks a conversion by molar mass, not a printed value. Calls of active or inactive are those of the source. The calls are words filed in the database; no cut-off is given here.

What was measured:
[1] = system: Mycobacterium tuberculosis; experiment: Antimycobacterial activity was assessed against Mycobacterium tuberculosis H37Ra using theMicroplate Alamar Blue Assay (MABA); NA means inactive at 200 ug/mL; assay type: functional, organism-based
KB [2] = experiment: Cytotoxic activity against human epidermoid carcinoma cells of KB cell lines in mouth; NA means inactive at 20 ug/mL; assay type: functional, cell-based
Plasmodium falciparum [3] = experiment: Antimalarial activity against multidrug-resistant Plasmodium falciparum K1; Not active at 20 ug/mL; assay type: functional, organism-based
BC1 cell line [4] = experiment: Cytotoxic activity against human breast cancer cells of BC-1 cell lines; NA means inactive at 20 ug/mL; assay type: functional, cell-based
Plasmodium falciparum [5] = experiment: Antimalarial activity against multidrug-resistant Plasmodium falciparum K1; assay type: functional, organism-based
[6] = system: Mycobacterium tuberculosis; experiment: Antimycobacterial activity was assessed against Mycobacterium tuberculosis H37Ra using theMicroplate Alamar Blue Assay (MABA); assay type: functional
BC1 cell line [7] = experiment: Cytotoxic activity against human breast cancer cells of BC-1 cell lines; assay type: functional, cell-based
KB [8] = experiment: Cytotoxic activity against human epidermoid carcinoma cells of KB cell lines in mouth; assay type: functional, cell-based

For `CCCCC/C=C(/C(=O)O)C(C)C(=O)OC` (centres undefined), the MIC [1] was “inactive”, the IC50 (KB [2]) was “Not Active” and the IC50 (Plasmodium falciparum [3]) was “Not Active”. The IC50 (BC1 cell line [4]) was “Not Active”.

For `C/C(=C\C1OC(C)(C)O[C@@H]1[C@H](C)C1=CC[C@@]2(C)C[C@@H]3[C@H](C)CC[C@@H]3/C(C(=O)O)=C\C[C@H]12)C(=O)O` (some centres undefined), the IC50 (KB [2]) was “Not Active”, the IC50 (Plasmodium falciparum [5]) was 19 µg/mL (≈ 40.2 µM) and the IC50 (BC1 cell line [4]) was “Not Active”. The MIC [6] was 200 µg/mL (≈ 423 µM).

`C/C(=C\[C@H](O)[C@H](O)[C@H](C)C1=CC[C@@]2(C)C[C@@H]3[C@H](C)CC[C@@H]3/C(C(=O)O)=C\C[C@H]12)C(=O)O` was tested, and the IC50 (KB [2]) was “Not Active”, the IC50 (Plasmodium falciparum [5]) was 13 µg/mL (≈ 30.1 µM) and the IC50 (BC1 cell line [4]) was “Not Active”. For the same compound, the MIC [6] was 200 µg/mL (≈ 462 µM).

In the case of `CC(=O)O[C@@H]1/C=C/[C@@](C)(O)C(=O)[C@@H](C)C/C=C/[C@H]2[C@@H]3O[C@]3(C)[C@@H](C)[C@H]3[C@H](Cc4ccccc4)NC(=O)[C@@]312` [CYTOCHALASIN Q], the IC50 (BC1 cell line [7]) is reported as 1 µg/mL (≈ 1.97 µM), the MIC [1] is reported as “inactive” and the IC50 (KB [8]) is reported as 3 µg/mL (≈ 5.91 µM). For the same compound, the IC50 (Plasmodium falciparum [5]) was 17 µg/mL (≈ 33.5 µM).

For `CCCCC/C=C(/C(=O)O)C(C)C(=O)O` (centres undefined), the IC50 (BC1 cell line [7]) was 5 µg/mL (≈ 23.3 µM), the MIC [1] was “inactive” and the IC50 (Plasmodium falciparum [3]) was “Not Active”. For the same compound, the IC50 (KB [8]) was 13 µg/mL (≈ 60.7 µM).

For `C[C@H]1Cc2c(C(=O)O)ccc(O)c2C(=O)O1`, the IC50 (BC1 cell line [7]) was 3 µg/mL (≈ 13.5 µM), the MIC [1] was “inactive” and the IC50 (KB [8]) was 3 µg/mL (≈ 13.5 µM). It also gave an IC50 (Plasmodium falciparum [5]) of 4 µg/mL (≈ 18 µM).
